{"source": "the NIST ThermoML archive (doi:10.1016/j.jct.2014.12.006)", "test": "mn = molality of the nth substance listed, in mol/kg", "settings": "298.15 K, 102 kPa, Liquid, Vibrating tube method", "note": "± gives the expanded uncertainty stated by the source.", "data": [{"compound": "CCCCCCCCCCCC[N+](C)(C)CC[N+](C)(C)CCCCCCCCCCCC.[Br-].[Br-]", "note": "[1,2-bis(dimethyldodecylammonium)ethane dibromide] + O", "values": [{"measurement": "mass density", "setting": "m1 = 0.0005", "value": "997.078 ± 0.12", "unit": "kg/m3"}, {"measurement": "mass density", "setting": "m1 = 0.00056", "value": "997.083 ± 0.12", "unit": "kg/m3"}, {"measurement": "mass density", "setting": "m1 = 0.00065", "value": "997.091 ± 0.12", "unit": "kg/m3"}, {"measurement": "mass density", "setting": "m1 = 0.0007", "value": "997.095 ± 0.12", "unit": "kg/m3"}, {"measurement": "mass density", "setting": "m1 = 0.00079", "value": "997.103 ± 0.12", "unit": "kg/m3"}, {"measurement": "mass density", "setting": "m1 = 0.00089", "value": "997.112 ± 0.12", "unit": "kg/m3"}, {"measurement": "mass density", "setting": "m1 = 0.00095", "value": "997.117 ± 0.12", "unit": "kg/m3"}, {"measurement": "mass density", "setting": "m1 = 0.00104", "value": "997.124 ± 0.12", "unit": "kg/m3"}, {"measurement": "mass density", "setting": "m1 = 0.00107", "value": "997.126 ± 0.12", "unit": "kg/m3"}, {"measurement": "mass density", "setting": "m1 = 0.00119", "value": "997.136 ± 0.12", "unit": "kg/m3"}, {"measurement": "mass density", "setting": "m1 = 0.0013", "value": "997.144 ± 0.12", "unit": "kg/m3"}, {"measurement": "mass density", "setting": "m1 = 0.00142", "value": "997.153 ± 0.12", "unit": "kg/m3"}, {"measurement": "mass density", "setting": "m1 = 0.00168", "value": "997.172 ± 0.12", "unit": "kg/m3"}]}, {"compound": "CCCCCCCCCCCCn1cc[n+](C)c1.[Br-]", "note": "[1-dodecyl-3-methylimidazolium bromide] + O", "values": [{"measurement": "mass density", "setting": "m1 = 0.00525", "value": "997.226 ± 0.12", "unit": "kg/m3"}, {"measurement": "mass density", "setting": "m1 = 0.00574", "value": "997.243 ± 0.12", "unit": "kg/m3"}, {"measurement": "mass density", "setting": "m1 = 0.00615", "value": "997.258 ± 0.12", "unit": "kg/m3"}, {"measurement": "mass density", "setting": "m1 = 0.007", "value": "997.288 ± 0.12", "unit": "kg/m3"}, {"measurement": "mass density", "setting": "m1 = 0.00733", "value": "997.299 ± 0.12", "unit": "kg/m3"}, {"measurement": "mass density", "setting": "m1 = 0.00816", "value": "997.329 ± 0.12", "unit": "kg/m3"}, {"measurement": "mass density", "setting": "m1 = 0.00869", "value": "997.347 ± 0.12", "unit": "kg/m3"}, {"measurement": "mass density", "setting": "m1 = 0.0092", "value": "997.365 ± 0.12", "unit": "kg/m3"}, {"measurement": "mass density", "setting": "m1 = 0.01006", "value": "997.396 ± 0.12", "unit": "kg/m3"}, {"measurement": "mass density", "setting": "m1 = 0.01063", "value": "997.412 ± 0.12", "unit": "kg/m3"}, {"measurement": "mass density", "setting": "m1 = 0.01124", "value": "997.43 ± 0.12", "unit": "kg/m3"}, {"measurement": "mass density", "setting": "m1 = 0.01196", "value": "997.451 ± 0.12", "unit": "kg/m3"}, {"measurement": "mass density", "setting": "m1 = 0.01274", "value": "997.474 ± 0.12", "unit": "kg/m3"}, {"measurement": "mass density", "setting": "m1 = 0.01356", "value": "997.498 ± 0.12", "unit": "kg/m3"}, {"measurement": "mass density", "setting": "m1 = 0.01464", "value": "997.529 ± 0.12", "unit": "kg/m3"}, {"measurement": "mass density", "setting": "m1 = 0.01526", "value": "997.545 ± 0.12", "unit": "kg/m3"}, {"measurement": "mass density", "setting": "m1 = 0.01629", "value": "997.575 ± 0.12", "unit": "kg/m3"}, {"measurement": "mass density", "setting": "m1 = 0.01707", "value": "997.595 ± 0.12", "unit": "kg/m3"}]}]}
